Laboratory results published in US10952436B2, “Microbiocidal quinoline (thio)carboxamide derivatives” (SYNGENTA PARTICIPATIONS AG, priority 2017, dated 2021).

Tests used:
[1] = tested on: Botryotinia fuckeliana (Botrytis cinerea); assay: Botryotinia fuckeliana (Botrytis cinerea)/Liquid Culture (Gray Mould); assay type: cell-based; conditions: 200 ppm, liquid culture, compared to untreated control, 3-4 days after application, read-out: control of Botryotinia fuckeliana
[2] = tested on: Monographella nivalis (Microdochium nivale); assay: Monographella nivalis (Microdochium nivale)/Liquid Culture (Foot Rot Cereals); assay type: cell-based; conditions: 200 ppm, liquid culture, compared to untreated control, 4-5 days after application, read-out: control of Monographella nivalis
Sclerotinia sclerotiorum = assay: Sclerotinia sclerotiorum/Liquid Culture (Cottony Rot); conditions: read-out: control of Sclerotinia sclerotiorum
Description: Mycelia fragments of a newly grown liquid culture of the fungus are directly mixed into nutrient broth (Vogels broth). After placing a (DMSO) solution of test compound into a microtiter plate (96-well format) the nutrient broth containing the fungal material is added. The test plates are incubated at 24° C. and the inhibition of growth is determined photometrically 3-4 days after application.

[3] = tested on: Magnaporthe grisea (Pyricularia oryzae); assay: microbe, parasite or virus in culture; assay type: cell-based; conditions: read-out: control of Magnaporthe grisea
[4] = tested on: Glomerella lagenarium (Colletotrichum lagenarium); assay: Glomerella lagenarium (Colletotrichum lagenarium)/Liquid Culture (Anthracnose); assay type: cell-based; conditions: Colletotrichum orbiculare; 200 ppm; liquid culture, compared to untreated control, 3-4 days after application; read-out: control of Glomerella lagenarium
Fusarium culmorum [5] = assay: microbe, parasite or virus in culture; assay type: cell-based; conditions: read-out: control of Fusarium culmorum
Fusarium culmorum [6] = assay: whole plant or invertebrate; assay type: in vivo; conditions: in Triticum aestivum, read-out: control of Fusarium culmorum

SMILES: C[C@](Cc1ccccc1)(CC(F)(F)F)C(=O)Nc1cnc2c(F)cccc2c1 (single isomer, unassigned) [Compound F-23]
- inhibition of growth at 200 ppm [1]: ≥ 80%
- inhibition of growth at 200 ppm [2]: ≥ 80%
- inhibition of growth at 20 ppm (Sclerotinia sclerotiorum): ≥ 80%
- inhibition of growth at 200 ppm [3]: ≥ 80%
- inhibition of growth at 200 ppm [4]: ≥ 80%
- inhibition of growth at 200 ppm (Fusarium culmorum [5]): ≥ 80%
- pest or weed control at 200 ppm (Fusarium culmorum [6]): ≥ 80%

SMILES: C=C(C)CC(C)(Cc1cccc(F)c1)C(=O)Nc1cnc2c(F)cccc2c1 (stereo not shown) [Compound E-11, 2-[(3-fluorophenyl)methyl]-N-(8-fluoro-3-quinolyl)-2,4-dimethyl-pent-4-enamide]
- inhibition of growth at 200 ppm [1]: ≥ 80%
- inhibition of growth at 200 ppm [2]: ≥ 80%
- inhibition of growth at 20 ppm (Sclerotinia sclerotiorum): ≥ 80%
- melting point: 125 to 127 °C
- inhibition of growth at 200 ppm [3]: ≥ 80%
- inhibition of growth at 200 ppm [4]: ≥ 80%
- inhibition of growth at 200 ppm (Fusarium culmorum [5]): ≥ 80%

SMILES: C=C(C)CC(C)(Cc1cccc(F)c1)C(=O)Nc1cc2cccc(F)c2nc1C (stereo not shown) [Compound E-12, N-(8-fluoro-2-methyl-3-quinolyl)-2-[(3-fluorophenyl)methyl]-2,4-dimethyl-pent-4-enamide]
- inhibition of growth at 200 ppm [1]: ≥ 80%
- inhibition of growth at 200 ppm [2]: ≥ 80%
- inhibition of growth at 20 ppm (Sclerotinia sclerotiorum): ≥ 80%
- melting point: 124 to 126 °C
- inhibition of growth at 200 ppm [3]: ≥ 80%
- inhibition of growth at 200 ppm [4]: ≥ 80%
- inhibition of growth at 200 ppm (Fusarium culmorum [5]): ≥ 80%

SMILES: Cc1c(NC(=O)C(C)(Cc2ccccc2)CC(C)C)cnc2c(Cl)cccc12 (stereo not shown) [Compound E-14, 2-benzyl-N-(8-chloro-4-methyl-3-quinolyl)-2,4-dimethyl-pentanamide]
- inhibition of growth at 200 ppm [1]: ≥ 80%
- inhibition of growth at 20 ppm (Sclerotinia sclerotiorum): ≥ 80%
- melting point: 124 to 126 °C
- inhibition of growth at 200 ppm [3]: ≥ 80%
- inhibition of growth at 200 ppm [4]: ≥ 80%
- inhibition of growth at 200 ppm (Fusarium culmorum [5]): ≥ 80%

SMILES: Cc1c(NC(=O)C(C)(Cc2ccccc2)CC(F)(F)F)cnc2c(Cl)cccc12 (stereo not shown) [Compound E-15, 2-benzyl-N-(8-chloro-4-methyl-3-quinolyl)-4,4,4-trifluoro-2-methyl-butanamide]
- inhibition of growth at 200 ppm [1]: ≥ 80%
- inhibition of growth at 200 ppm [2]: ≥ 80%
- inhibition of growth at 20 ppm (Sclerotinia sclerotiorum): ≥ 80%
- melting point: 73 to 75 °C
- inhibition of growth at 200 ppm [3]: ≥ 80%
- inhibition of growth at 200 ppm [4]: ≥ 80%
- inhibition of growth at 200 ppm (Fusarium culmorum [5]): ≥ 80%

SMILES: Cc1nc2c(F)cccc2cc1NC(=O)C(C)(Cc1ccc(F)cc1)CC(F)(F)F (stereo not shown) [Compound E-16, 4,4,4-trifluoro-N-(8-fluoro-2-methyl-3-quinolyl)-2-[(4-fluorophenyl)methyl]-2-methyl-butanamide]
- inhibition of growth at 200 ppm [1]: ≥ 80%
- inhibition of growth at 20 ppm (Sclerotinia sclerotiorum): ≥ 80%
- inhibition of growth at 200 ppm [3]: ≥ 80%
- inhibition of growth at 200 ppm [4]: ≥ 80%
- inhibition of growth at 200 ppm (Fusarium culmorum [5]): ≥ 80%

SMILES: CC(Cc1cccc(F)c1)(CC(F)(F)F)C(=O)Nc1cnc2c(F)cccc2c1 (stereo not shown) [Compound E-22, 4,4,4-trifluoro-2-[(3-fluorophenyl)methyl]-N-(8-fluoro-3-quinolyl)-2-methyl-butanamide]
- inhibition of growth at 200 ppm [1]: ≥ 80%
- inhibition of growth at 200 ppm [2]: ≥ 80%
- inhibition of growth at 20 ppm (Sclerotinia sclerotiorum): ≥ 80%
- inhibition of growth at 200 ppm [3]: ≥ 80%
- inhibition of growth at 200 ppm [4]: ≥ 80%
- inhibition of growth at 200 ppm (Fusarium culmorum [5]): ≥ 80%

SMILES: CC(Cc1ccccc1)(CC1(F)CC1)C(=O)Nc1cnc2c(F)cccc2c1 (stereo not shown) [Compound E-25, 2-benzyl-3-(1-fluorocyclopropyl)-N-(8-fluoro-3-quinolyl)-2-methyl-propanamide]
- inhibition of growth at 200 ppm [1]: ≥ 80%
- inhibition of growth at 20 ppm (Sclerotinia sclerotiorum): ≥ 80%
- melting point: 162 to 164 °C
- inhibition of growth at 200 ppm [3]: ≥ 80%
- inhibition of growth at 200 ppm [4]: ≥ 80%
- inhibition of growth at 200 ppm (Fusarium culmorum [5]): ≥ 80%
- pest or weed control at 200 ppm (Fusarium culmorum [6]): ≥ 80%

SMILES: COC(Cc1ccccc1)(CC(C)C)C(=O)Nc1cc2cccc(F)c2nc1C (stereo not shown) [Compound E-37, 2-benzyl-N-(8-fluoro-2-methyl-3-quinolyl)-2-methoxy-4-methyl-pentanamide]
- inhibition of growth at 200 ppm [1]: ≥ 80%
- inhibition of growth at 200 ppm [2]: ≥ 80%
- melting point: 92 to 94 °C
- inhibition of growth at 200 ppm [3]: ≥ 80%
- inhibition of growth at 200 ppm [4]: ≥ 80%
- inhibition of growth at 200 ppm (Fusarium culmorum [5]): ≥ 80%
- pest or weed control at 200 ppm (Fusarium culmorum [6]): ≥ 80%

SMILES: COC(C)(Cc1ccccc1)C(=O)Nc1cnc2c(F)cccc2c1 (stereo not shown) [Compound E-43, N-(8-fluoro-3-quinolyl)-2-methoxy-2-methyl-3-phenyl-propanamide]
- inhibition of growth at 200 ppm [1]: ≥ 80%
- inhibition of growth at 200 ppm [2]: ≥ 80%
- melting point: 107 to 109 °C
- inhibition of growth at 200 ppm [3]: ≥ 80%
- inhibition of growth at 200 ppm [4]: ≥ 80%
- inhibition of growth at 200 ppm (Fusarium culmorum [5]): ≥ 80%
- pest or weed control at 200 ppm (Fusarium culmorum [6]): ≥ 80%

SMILES: CC(Cc1ccccc1)(CC(F)(F)Cl)C(=O)Nc1cnc2c(F)cccc2c1 (stereo not shown) [Compound E-56, 2-benzyl-4-chloro-4,4-difluoro-N-(8-fluoro-3-quinolyl)-2-methyl-butanamide]
- inhibition of growth at 200 ppm [1]: ≥ 80%
- inhibition of growth at 200 ppm [2]: ≥ 80%
- inhibition of growth at 20 ppm (Sclerotinia sclerotiorum): ≥ 80%
- inhibition of growth at 200 ppm [3]: ≥ 80%
- inhibition of growth at 200 ppm [4]: ≥ 80%
- inhibition of growth at 200 ppm (Fusarium culmorum [5]): ≥ 80%
- pest or weed control at 200 ppm (Fusarium culmorum [6]): ≥ 80%

SMILES: O=C(Nc1cnc2c(F)cccc2c1)C(Cc1ccccc1)CC(F)(F)Cl (stereo not shown) [Compound E-58, 2-benzyl-4-chloro-4,4-difluoro-N-(8-fluoro-3-quinolyl)butanamide]
- inhibition of growth at 200 ppm [1]: ≥ 80%
- inhibition of growth at 200 ppm [2]: ≥ 80%
- melting point: 65 to 70 °C
- inhibition of growth at 200 ppm [3]: ≥ 80%
- inhibition of growth at 200 ppm [4]: ≥ 80%
- inhibition of growth at 200 ppm (Fusarium culmorum [5]): ≥ 80%
- pest or weed control at 200 ppm (Fusarium culmorum [6]): ≥ 80%

SMILES: Cc1cccc2cc(NC(=O)C(C)(Cc3ccccc3)CC(F)(F)F)cnc12 (stereo not shown) [Compound E-59, 2-benzyl-4,4,4-trifluoro-2-methyl-N-(8-methyl-3-quinolyl)butanamide]
- inhibition of growth at 200 ppm [1]: ≥ 80%
- inhibition of growth at 200 ppm [2]: ≥ 80%
- melting point: 123 to 125 °C
- inhibition of growth at 200 ppm [3]: ≥ 80%
- inhibition of growth at 200 ppm [4]: ≥ 80%
- inhibition of growth at 200 ppm (Fusarium culmorum [5]): ≥ 80%
- pest or weed control at 200 ppm (Fusarium culmorum [6]): ≥ 80%

SMILES: CC(Cc1ccccc1)(CC(F)(F)F)C(=O)Nc1cnc2c(F)c(F)ccc2c1 (stereo not shown) [Compound E-60, 2-benzyl-N-(7,8-difluoro-3-quinolyl)-4,4,4-trifluoro-2-methyl-butanamide]
- inhibition of growth at 200 ppm [1]: ≥ 80%
- inhibition of growth at 200 ppm [2]: ≥ 80%
- melting point: 183 to 186 °C
- inhibition of growth at 200 ppm [3]: ≥ 80%
- inhibition of growth at 200 ppm [4]: ≥ 80%
- inhibition of growth at 200 ppm (Fusarium culmorum [5]): ≥ 80%
- pest or weed control at 200 ppm (Fusarium culmorum [6]): ≥ 80%

SMILES: CC(Cc1ccccc1)(CC(F)(F)F)C(=O)Nc1cnc2ccccc2c1 (stereo not shown) [Compound E-81, 2-benzyl-4,4,4-trifluoro-2-methyl-N-(3-quinolyl)butanamide]
- inhibition of growth at 200 ppm [1]: ≥ 80%
- inhibition of growth at 20 ppm (Sclerotinia sclerotiorum): ≥ 80%
- inhibition of growth at 200 ppm [3]: ≥ 80%
- inhibition of growth at 200 ppm [4]: ≥ 80%
- inhibition of growth at 200 ppm (Fusarium culmorum [5]): ≥ 80%
- pest or weed control at 200 ppm (Fusarium culmorum [6]): ≥ 80%

SMILES: Cc1c(NC(=O)[C@](C)(Cc2ccccc2)CC(C)C)cnc2c(F)cccc12 [Compound F-3, (2S)-2-benzyl-N-(8-fluoro-4-methyl-3-quinolyl)-2,4-dimethyl-pentanamide]
- inhibition of growth at 200 ppm [1]: ≥ 80%
- inhibition of growth at 200 ppm [2]: ≥ 80%
- inhibition of growth at 20 ppm (Sclerotinia sclerotiorum): ≥ 80%
- inhibition of growth at 200 ppm [3]: ≥ 80%
- inhibition of growth at 200 ppm [4]: ≥ 80%
- inhibition of growth at 200 ppm (Fusarium culmorum [5]): ≥ 80%

SMILES: C=C(C)C[C@@](C)(Cc1ccccc1)C(=O)Nc1cnc2c(F)cccc2c1C [Compound F-5, (2S)-2-benzyl-N-(8-fluoro-4-methyl-3-quinolyl)-2,4-dimethyl-pent-4-enamide]
- inhibition of growth at 200 ppm [1]: ≥ 80%
- inhibition of growth at 200 ppm [2]: ≥ 80%
- inhibition of growth at 20 ppm (Sclerotinia sclerotiorum): ≥ 80%
- inhibition of growth at 200 ppm [3]: ≥ 80%
- inhibition of growth at 200 ppm [4]: ≥ 80%
- inhibition of growth at 200 ppm (Fusarium culmorum [5]): ≥ 80%

SMILES: Cc1nc2c(F)cccc2cc1NC(=O)[C@](C)(Cc1ccccc1)CC(C)C [Compound F-7, (2S)-2-benzyl-N-(8-fluoro-2-methyl-3-quinolyl)-2,4-dimethyl-pentanamide]
- inhibition of growth at 200 ppm [1]: ≥ 80%
- inhibition of growth at 200 ppm [2]: ≥ 80%
- inhibition of growth at 20 ppm (Sclerotinia sclerotiorum): ≥ 80%
- inhibition of growth at 200 ppm [3]: ≥ 80%
- inhibition of growth at 200 ppm [4]: ≥ 80%
- inhibition of growth at 200 ppm (Fusarium culmorum [5]): ≥ 80%
- pest or weed control at 200 ppm (Fusarium culmorum [6]): ≥ 80%

SMILES: Cc1nc2c(F)cccc2cc1NC(=O)[C@@](C)(Cc1ccccc1)CC(C)C [Compound F-8, (2R)-2-benzyl-N-(8-fluoro-2-methyl-3-quinolyl)-2,4-dimethyl-pentanamide]
- inhibition of growth at 200 ppm [1]: ≥ 80%
- inhibition of growth at 200 ppm [2]: ≥ 80%
- inhibition of growth at 20 ppm (Sclerotinia sclerotiorum): ≥ 80%
- inhibition of growth at 200 ppm [3]: ≥ 80%
- inhibition of growth at 200 ppm [4]: ≥ 80%
- inhibition of growth at 200 ppm (Fusarium culmorum [5]): ≥ 80%
- pest or weed control at 200 ppm (Fusarium culmorum [6]): ≥ 80%

SMILES: CC1(C[C@@](C)(Cc2ccccc2)C(=O)Nc2cnc3c(F)cccc3c2)CC1 [Compound F-10, (2S)-2-benzyl-N-(8-fluoro-3-quinolyl)-2-methyl-3-(1-methylcyclopropyl) propanamide]
- inhibition of growth at 200 ppm [1]: ≥ 80%
- inhibition of growth at 200 ppm [2]: ≥ 80%
- inhibition of growth at 20 ppm (Sclerotinia sclerotiorum): ≥ 80%
- melting point: 58 to 60 °C
- inhibition of growth at 200 ppm [3]: ≥ 80%
- inhibition of growth at 200 ppm [4]: ≥ 80%
- inhibition of growth at 200 ppm (Fusarium culmorum [5]): ≥ 80%

SMILES: C[C@](Cc1ccccc1)(CC(F)(F)F)C(=O)Nc1cnc2c(F)c(F)ccc2c1 [Compound F-15, (2S)-2-benzyl-N-(7,8-difluoro-3-quinolyl)-4,4,4-trifluoro-2-methyl-butanamide]
- inhibition of growth at 200 ppm [1]: ≥ 80%
- inhibition of growth at 200 ppm [2]: ≥ 80%
- inhibition of growth at 20 ppm (Sclerotinia sclerotiorum): ≥ 80%
- inhibition of growth at 200 ppm [3]: ≥ 80%
- inhibition of growth at 200 ppm [4]: ≥ 80%
- inhibition of growth at 200 ppm (Fusarium culmorum [5]): ≥ 80%
